# Test results: patent US20230144344A1, “COMPOSITION FOR PREVENTING OR TREATING CARDIOVASCULAR AND METABOLIC DISEASES COMPRISING ELAEOCARPUS PETIOLATUS” (SEOUL NATIONAL UNIVERSITY HOSPITAL, priority 2020, published 2023)
# Tests used:
# Resistin-CAP1 binding = target: T1, Resistin-CAP1 binding (Homo sapiens, UniProt Q9HD89); assay: Resistin-CAP1 competitive binding assay (enzyme immunological method); settings: for Resistin-CAP1 binding inhibitory effect: in words, FIG. 5a-5c; for binding inhibitory activity of Resistin-CAP1: 25 μM, 50 μM, and 100 μM, FIG. 8
# T1 sequence (Q9HD89 19-108): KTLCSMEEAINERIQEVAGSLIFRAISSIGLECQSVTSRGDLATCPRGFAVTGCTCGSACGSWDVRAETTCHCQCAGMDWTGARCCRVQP
# Method: Recombinant CAP-1 protein was attached to a plate for immunoassay overnight, washed, and then the attachment of other proteins was blocked with 1% BSA/PBS solution, and the recombinant Resistin to which mouse Fc was attached and the sample were pre-reacted for 1 hour. Then, the solution was dispensed on the plate and reacted at room temperature for 2 hours. After washing the plate, HRP to be attached to the mFc of Resistin bound to CAP-1 was dispensed and reacted for 1 hour. After washing, the substrate was dispensed and reacted for 30 minutes by HRP, and absorbance was measured at a wavelength of 450 nm with a microplate meter.
# [1] = test system: Resistin-induced TNF-α production in THP-1 cells; assay: TNF-alpha assay: Resistin-induced TNF-α production in THP-1 cells (ELISA); type: cell-based, human; settings: for inhibitory effect on TNF-α induced by Resistin: in words, summary of Table 3b
# Method: TNF-alpha assay was performed to examine the anti-inflammatory effect induced by the Resistin-CAP1 binding on the Elaeocarpus petiolatus extracts, fractions, and single compounds isolated therefrom.
# After culturing for 1 hour, 2 μg/mL of human recombinant Resistin (Biovision) was treated and further cultured for 6 hours. Thereafter, the supernatant was recovered and stored at −70° C.
# For TNF-alpha assay, Human TNF-alpha ELISA kit (BD bioscience) was used and analyzed according to the manufacturer's protocol.
# THP-1 cells = assay: Cell viability of THP-1 cells (CytoX)
# Method: After 1 hour, each sample was treated at a concentration of 5 μM. After culturing for 24 hours, 5 μL of CytoX (LPS solution, Korea) solution was added into each well and incubated for another 4 hours. Then, absorbance was measured at 450 nm. The cell viability was calculated according to the following equation with the value of the negative control treated with DMSO as 100%.
# [2] = 10 μg/mL, RETN +, THP-1 cells, isolated compounds
Compound,Resistin-CAP1 binding inhibitory effect (Resistin-CAP1 binding),"TNF-α Inhibition Rate (%, Average ± Standard Deviation) ([1]; 5 μg/mL, RETN +, THP-1 cells) [%]","TNF-α Inhibition Rate (%, Average ± Standard Deviation) [1, 2] [%]","TNF-α Inhibition Rate (%, Average ± Standard Deviation) ([1]; 20 μg/mL, RETN +, THP-1 cells) [%]",inhibitory effect on TNF-α induced by Resistin [1],"Viability (%, Average ± Standard Deviation) (THP-1 cells; 2.5 μg/mL) [%]","Viability (%, Average ± Standard Deviation) (THP-1 cells; 5 μg/mL) [%]","Viability (%, Average ± Standard Deviation) (THP-1 cells; 10 μg/mL, isolated compounds) [%]","Viability (%, Average ± Standard Deviation) (THP-1 cells; 20 μg/mL) [%]","inhibition at 5 µg/mL ([1]; Homo sapiens, 5 μg/mL, RETN +, THP-1 cells, read-out: TNF-α Inhibition Rate (%, Average ± Standard Deviation)) [%]","inhibition at 10 µg/mL ([1]; Homo sapiens, 10 μg/mL, RETN +, THP-1 cells, isolated compounds, read-out: TNF-α Inhibition Rate (%, Average ± Standard Deviation)) [%]","inhibition at 20 µg/mL ([1]; Homo sapiens, 20 μg/mL, RETN +, THP-1 cells, read-out: TNF-α Inhibition Rate (%, Average ± Standard Deviation)) [%]",binding inhibitory activity of Resistin-CAP1 (Resistin-CAP1 binding)
Isorhamnetin-3-O-β-D-hexoside [Isorhamnetin-3-O-β-D-hexoside (6E)],concentration-dependent inhibitory effect,43.06 ± 10.44,51.29 ± 5.76,59.53 ± 9.02,exhibited an inhibitory effect on TNF-α production,101.71 ± 4.56,101.88 ± 0.10,95.02 ± 0.20,94.72 ± 0.28,,,,
"O=c1oc2c(O)c(O)cc3c(=O)oc4c(O)c(O)cc1c4c23 [Ellagic acid (6D), Ellagic acid]",concentration-dependent inhibitory effect,,,,exhibited an inhibitory effect on TNF-α production,96.89 ± 0.05,98.73 ± 0.91,94.38 ± 0.13,89.21 ± 1.01,16.4 ± 5.12,27.4 ± 4.5,-18.6 ± 3.16,
"C[C@H]1O[C@@H](Oc2c(-c3cc(O)c(O)c(O)c3)oc3cc(O)cc(O)c3c2=O)[C@@H](O)[C@@H](O)[C@@H]1O [Myricetin-3-O-α-L-rhamnoside (5E2), Myricetin-3-O-α-L-rhamnoside]",concentration-dependent inhibitory effect,28.57 ± 6.79,24.13 ± 3.31,33.64 ± 9.21,exhibited an inhibitory effect on TNF-α production,99.54 ± 3.22,106.14 ± 0.93,98.85 ± 1.07,100.12 ± 0.64,,,,inhibited the binding of Resistin-CAP1 in a concentration-dependent manner
"O=c1c(O)c(-c2cc(O)c(O)c(O)c2)oc2cc(O)cc(O)c12 [myricetin, Myricetin, reference compound]",,,,,,,,,,,,,no inhibitory activity
